Reference: US8058228B2, “Leptin peptide antagonists” (Boston Biomedical Research Institute, priority 2004, dated 2011)

Test system: OB-R
Assay: p-Stat3 expression in rabbit endometrial cells (immunocytochemistry, Western blot)
Assay type: cell-based
Conditions: for effect on basal expression of p-Stat3 / effect on leptin up-regulation of Stat3 phosphorylation: rESC and rEEC; for effect on basal expression of p-Stat3: Western blot, 3 to 300 nM; for effect on leptin up-regulation of Stat3 phosphorylation: peptides 3 to 300 nM, antibody 1-10 μg/ml
Experimental: Rabbit endometrial cells (5×10^5 cells/well) were cultured for 5-9 days in DMEM-MCDB105 (3:1) medium containing 10% fetal bovine serum (FBS), 5 μg/ml insulin, 1% amphopthericin B, 100 μg/ml streptomycin and 100 U/ml penicillin until confluent layers were obtained. The cells were washed twice with 100 mM phosphate saline buffer (PBS) −2% BSA (w/v), pH 7.2 and cultured for an additional 2 days in the same medium but without FBS (basal medium). This procedure was performed to reduce any effects of cytokines from FBS on the phosphorylation rate of Stat3 as well as the expression of other cytokines and their receptors. Cells were washed as described before and cultured in basal medium containing leptin (0-10 nM), OB-R antibody (1-20 μg/ml) and/or LPA-2 peptides (0-300 nM). Cultures were stopped at 24 h and the cells were used for immunocytochemistry, binding studies and western blot analysis. The conditioned media were collected, lyophilized and stored at −80° C. for ELISA determinations. Duplicate wells were run for each treatment and the experiments repeated at least three times with different cell preparations from different rabbits. Controls were the same cellular preparations cultured in basal medium containing non-specific goat IgGs and LPA-2Sc.
The rabbit endometrial cells were cultured as described above in duplicate on 8-well glass-bottom culture plates (Nalgene Nunc International, Naperville, Ill.) and fixed with methanol at −20° C. for 20 min for immunocytochemical studies. All the antibodies tested were diluted in PBS-2% BSA (w/v; buffer A).
Anti IL-1R tl (1 μg/ml), anti LIF-R (2 μg/ml), anti vimentin (1:50), anti cytokeratin (1:50) and anti p-Stat3 (1 μg/ml) antibodies were used to assess the expression of the respective antigens by rEEC and rESC cultures. After incubation with primary antibodies the cells were incubated with a streptavidin-biotin-alkaline phosphatase system according to the manufacturer directions (Vectastain, ABC-AP kit, Vector Laboratories, Burlingame, Calif.) and counter-stained with hematoxylin (Dako). Negative controls included cell preparations in which the primary antibodies were substituted by irrelevant species matched IgGs.
After culture in the presence of leptin, LPAs or antibodies, the endometrial cells were washed with ice-cold PBS and lysed by homogenization on ice with lysis buffer [[…] Tris, pH 7.4, containing 137 nM NaCl, 2 mM EDTA, 10% glycerol, 50 mM β-glycerophosphate, 50 nM NaF, 1% Nonidet P-40, 2 mM phenyl-methylsulfonyl fluoride, 2 mM sodium orthovanadate, 100 μM antipain, 0.1 mg/ml trypsin inhibitor and protease cocktail inhibitor 1:50 (Sigma)]. Cellular lysates were centrifuged at 24000 g at 4° C. for 10 min. Protein concentrations were determined using the Bradford protein assay (BioRad Laboratories Inc., Hercules, Calif.).
Protein extracts from cell lysates were combined (1:1) with Laemmli buffer (2× concentrated) and 10 μg of proteins were loaded per lane on 7.5% (for p-Stat3, IL-1R tl and LIF-R) and 10% (for OB-R) SDS-PAGE gels. Electrophoresis was performed at 65 V for 1-1.5 h (BioRad, electrophoresis apparatus). Electroblotting onto 0.2 μm nitrocellulose membranes was performed at 22V overnight at 4° C. in 48 nM Tris-39 nM glycine buffer containing 0.037% SDS and 20% methanol. […]

| Substance | effect on basal expression of p-Stat3 | effect on leptin up-regulation of Stat3 phosphorylation (leptin 3 nM) | p-Stat3 expression after leptin (rESC, immunocytochemistry, leptin 3 nM) |
| --- | --- | --- | --- |
| SRNVIQISNDLENLRDLLHVLAFSKS [LPA-2, 26 amino acid peptide, residues 70-95 of helix III of the human leptin molecule; leptin peptide antagonist] | effectively inhibited the basal expression of p-Stat3 | significantly inhibits the leptin up-regulation of Stat3 phosphorylation | – |
| VAEVLNRSDLIQRISFSLDLNNSKLH [LPA-2Sc, scrambled version of LPA-2, negative control, reference compound] | No inhibitory effect on p-Stat3 expression | not observed | – |
| leptin: human recombinant leptin (R&D Systems), OB-R ligand used as stimulus | – | – | up-regulated |
